For this experiment, the system named is Bromodomains BRD2, BRD3, BRD4 and BRDT. Put plainly: Binding of the fluoroligand to mutated versus non-mutated bromodomain. Set-up: species or system Human. Particulars: single residue mutations in the acetyl lysine binding pocket. The procedure: Time Resolved Fluorescence Resonance Energy Transfer (TR-FRET) Assay Binding was assessed using a time resolved fluorescent resonance energy transfer binding assay. This utilises a 6 His purification tag at the N-terminal of the proteins as an epitope for an anti-6 His antibody labeled with Europium chelate (PerkinElmer AD0111) allowing binding of the Europium to the proteins which acts as the donor fluorophore. A small molecule, high affinity binder of the bromodomains BRD2, BRD3, BRD4 and BRDT has been labeled with Alexa Fluor647 (Reference Compound X) and this acts as the acceptor in the FRET pair.
The binding of the compounds of formula (I) to Bromodomains BRD2, BRD3, BRD4 and BRDT was assessed using mutated proteins to detect differential binding to either Binding Domain 1 (BD1) or Binding Domain 2 (BD2) on the bromodomain. These single residue mutations in the acetyl lysine binding pocket greatly lower the affinity of the fluoroligand (Reference Compound X) for the mutated domain (>1000 fold selective for the non-mutated domain). Therefore in the final assay conditions, binding of the fluoroligand to the mutated domain cannot be detected and subsequently the assay is suitable to determine the binding of compounds to the single non-mutated bromodomain. […]

Structures are written as SMILES.

Turning to `COc1ccc2c(c1)C(c1ccc(Cl)cc1)=N[C@@H](CC(=O)NCCCCCNC(=O)CCCCCC1(C)/C(=C/C=C/C=C/C3=[N+](CCCCS(=O)(=O)O)c4ccc(S(=O)(=O)O)cc4C3(C)C)N(CCCCS(=O)(=O)[O-])c3ccc(S(=O)(=O)O)cc31)c1nnc(C)n1-2` (stereo partly shown) [Reference Compound X], the “selectivity of the fluoroligand for the non-mutated domain over the mutated domain” value was over 1000 fold.
